This passage reports Activity results from ChEMBL document CHEMBL5696441 (Nat Chem Biol, 2011).

Assay [1] concerns the target Cyclin-dependent kinase 9 (Homo sapiens) (UniProt P50750). Kind of assay: Inhibition of CDK9 (unknown origin) assessed as remaining activity at 1 uM by Kinome scan method relative to control.
Assay [2] has as its target T1, Ephrin type-B receptor 4 (Homo sapiens) (UniProt P54760).
T1 sequence (whole entry): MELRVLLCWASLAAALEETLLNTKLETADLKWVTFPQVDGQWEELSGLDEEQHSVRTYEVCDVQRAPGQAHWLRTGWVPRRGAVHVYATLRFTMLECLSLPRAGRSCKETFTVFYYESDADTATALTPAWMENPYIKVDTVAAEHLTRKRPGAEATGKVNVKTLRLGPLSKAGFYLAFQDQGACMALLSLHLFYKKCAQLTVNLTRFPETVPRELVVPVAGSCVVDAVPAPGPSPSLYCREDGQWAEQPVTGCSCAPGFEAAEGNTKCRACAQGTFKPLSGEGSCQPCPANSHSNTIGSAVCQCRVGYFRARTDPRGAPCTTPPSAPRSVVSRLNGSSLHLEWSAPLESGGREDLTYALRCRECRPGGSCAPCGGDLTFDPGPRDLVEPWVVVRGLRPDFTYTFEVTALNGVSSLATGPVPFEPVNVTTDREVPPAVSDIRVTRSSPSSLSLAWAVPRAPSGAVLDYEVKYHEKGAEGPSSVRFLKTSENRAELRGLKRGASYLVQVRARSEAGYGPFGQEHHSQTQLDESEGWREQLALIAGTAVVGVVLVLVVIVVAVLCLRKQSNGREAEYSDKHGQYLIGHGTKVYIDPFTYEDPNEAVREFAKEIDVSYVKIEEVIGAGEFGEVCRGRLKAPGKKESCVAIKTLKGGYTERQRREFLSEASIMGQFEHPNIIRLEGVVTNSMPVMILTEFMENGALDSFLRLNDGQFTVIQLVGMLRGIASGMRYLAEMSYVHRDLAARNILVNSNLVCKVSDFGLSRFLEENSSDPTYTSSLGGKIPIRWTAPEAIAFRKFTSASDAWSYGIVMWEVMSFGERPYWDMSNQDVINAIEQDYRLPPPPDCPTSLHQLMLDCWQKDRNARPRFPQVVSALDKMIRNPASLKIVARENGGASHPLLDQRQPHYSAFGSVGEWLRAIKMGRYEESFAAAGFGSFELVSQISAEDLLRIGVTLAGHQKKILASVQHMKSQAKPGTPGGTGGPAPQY
As to the kind of experiment: Inhibition of EPHB4 (unknown origin) assessed as remaining activity at 1 uM by Kinome scan method relative to control.

Assay [3] concerns the target NT-3 growth factor receptor (Homo sapiens) (UniProt Q16288). As to the kind of experiment: Inhibition of TRKC (unknown origin) assessed as remaining activity at 1 uM by Kinome scan method relative to control.
Assay [4] deals with Misshapen-like kinase 1 (Homo sapiens) (UniProt Q8N4C8). As to the kind of experiment: Inhibition of MINK (unknown origin) assessed as remaining activity at 1 uM by Kinome scan method relative to control.
The target of assay [5] is T2, Phosphorylase b kinase gamma catalytic chain, liver/testis isoform (Homo sapiens) (UniProt P15735).
T2 sequence (whole entry): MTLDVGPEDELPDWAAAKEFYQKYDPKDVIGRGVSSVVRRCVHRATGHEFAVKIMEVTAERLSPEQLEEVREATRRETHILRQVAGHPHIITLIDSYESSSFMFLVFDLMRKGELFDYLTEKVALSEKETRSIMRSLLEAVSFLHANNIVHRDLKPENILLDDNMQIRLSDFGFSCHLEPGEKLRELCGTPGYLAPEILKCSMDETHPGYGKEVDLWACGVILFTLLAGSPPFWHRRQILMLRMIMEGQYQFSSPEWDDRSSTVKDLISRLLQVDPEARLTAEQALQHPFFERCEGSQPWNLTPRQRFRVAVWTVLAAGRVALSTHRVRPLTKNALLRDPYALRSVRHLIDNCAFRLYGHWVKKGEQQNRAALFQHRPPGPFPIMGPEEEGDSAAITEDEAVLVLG
Kind of assay: Inhibition of PHKG2 (unknown origin) assessed as remaining activity at 1 uM by Kinome scan method relative to control.

The target of assay [6] is Protein kinase C eta type (Homo sapiens) (UniProt P24723). Kind of assay: Inhibition of PRKCH (unknown origin) assessed as remaining activity at 1 uM by Kinome scan method relative to control.
Assay [7] has as its target Serine/threonine-protein kinase RIO2 (Homo sapiens) (UniProt Q9BVS4). As to the kind of experiment: Inhibition of RIOK2 (unknown origin) assessed as remaining activity at 1 uM by Kinome scan method relative to control.
Assay [8] has as its target Vascular endothelial growth factor receptor 1 (Homo sapiens) (UniProt P17948). Kind of assay: Inhibition of FLT1 (unknown origin) assessed as remaining activity at 1 uM by Kinome scan method relative to control.
For assay [9], the target named is Phosphatidylinositol 4,5-bisphosphate 3-kinase catalytic subunit delta isoform (Homo sapiens) (UniProt O00329). As to the kind of experiment: Inhibition of PIK3CD (unknown origin) assessed as remaining activity at 1 uM by Kinome scan method relative to control.
In assay [10] the target is Mitogen-activated protein kinase kinase kinase 20 (Homo sapiens) (UniProt Q9NYL2). As to the kind of experiment: Inhibition of ZAK (unknown origin) assessed as remaining activity at 1 uM by Kinome scan method relative to control.
Assay [11] addresses LIM domain kinase 2 (Homo sapiens) (UniProt P53671). As to the kind of experiment: Inhibition of LIMK2 (unknown origin) assessed as remaining activity at 1 uM by Kinome scan method relative to control.
The target in assay [12] is Non-receptor tyrosine-protein kinase TNK1 (Homo sapiens) (UniProt Q13470). Kind of assay: Inhibition of TNK1 (unknown origin) assessed as remaining activity at 1 uM by Kinome scan method relative to control.
Assay [13] addresses T3, Aurora kinase A (Homo sapiens) (UniProt O14965).
T3 sequence (whole entry): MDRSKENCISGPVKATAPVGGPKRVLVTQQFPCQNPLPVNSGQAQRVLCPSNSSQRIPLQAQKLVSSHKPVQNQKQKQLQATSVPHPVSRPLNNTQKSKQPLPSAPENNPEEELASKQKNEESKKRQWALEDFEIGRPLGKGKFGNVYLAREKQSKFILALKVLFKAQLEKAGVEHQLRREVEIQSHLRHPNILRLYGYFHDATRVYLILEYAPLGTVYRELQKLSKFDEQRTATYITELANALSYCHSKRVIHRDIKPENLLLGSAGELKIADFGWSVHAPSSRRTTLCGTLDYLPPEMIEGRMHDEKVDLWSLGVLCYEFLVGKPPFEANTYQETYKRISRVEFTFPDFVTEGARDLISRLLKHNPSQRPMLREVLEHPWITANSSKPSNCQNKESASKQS
Kind of assay: Inhibition of AURKA (unknown origin) assessed as remaining activity at 1 uM by Kinome scan method relative to control.

The target of assay [14] is Activin receptor type-2A (Homo sapiens) (UniProt P27037). As to the kind of experiment: Inhibition of ACVR2A (unknown origin) assessed as remaining activity at 1 uM by Kinome scan method relative to control.
The target of assay [15] is Protein-tyrosine kinase 6 (Homo sapiens) (UniProt Q13882). As to the kind of experiment: Inhibition of BRK (unknown origin) assessed as remaining activity at 1 uM by Kinome scan method relative to control.

SMILES strings stand for the structures.

LIM domain kinase 2 (Homo sapiens), sequence (P53671 whole entry, looked up, the tested form may be a part): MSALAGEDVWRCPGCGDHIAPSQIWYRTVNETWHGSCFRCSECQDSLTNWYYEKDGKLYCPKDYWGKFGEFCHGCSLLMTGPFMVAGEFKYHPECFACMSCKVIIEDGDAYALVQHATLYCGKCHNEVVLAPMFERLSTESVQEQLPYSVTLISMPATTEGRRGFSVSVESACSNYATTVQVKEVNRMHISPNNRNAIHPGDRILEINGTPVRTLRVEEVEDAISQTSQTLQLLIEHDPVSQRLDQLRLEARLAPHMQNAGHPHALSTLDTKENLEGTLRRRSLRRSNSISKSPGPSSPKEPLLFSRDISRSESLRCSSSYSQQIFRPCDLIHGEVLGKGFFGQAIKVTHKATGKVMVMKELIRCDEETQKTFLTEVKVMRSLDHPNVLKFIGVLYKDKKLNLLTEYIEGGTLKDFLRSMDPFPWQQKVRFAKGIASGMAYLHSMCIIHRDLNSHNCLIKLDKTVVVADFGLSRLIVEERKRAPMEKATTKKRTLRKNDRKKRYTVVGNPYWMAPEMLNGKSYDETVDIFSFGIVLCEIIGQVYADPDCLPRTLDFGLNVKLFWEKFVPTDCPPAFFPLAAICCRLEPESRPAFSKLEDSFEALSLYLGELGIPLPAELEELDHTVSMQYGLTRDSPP
Activin receptor type-2A (Homo sapiens), sequence (P27037 whole entry): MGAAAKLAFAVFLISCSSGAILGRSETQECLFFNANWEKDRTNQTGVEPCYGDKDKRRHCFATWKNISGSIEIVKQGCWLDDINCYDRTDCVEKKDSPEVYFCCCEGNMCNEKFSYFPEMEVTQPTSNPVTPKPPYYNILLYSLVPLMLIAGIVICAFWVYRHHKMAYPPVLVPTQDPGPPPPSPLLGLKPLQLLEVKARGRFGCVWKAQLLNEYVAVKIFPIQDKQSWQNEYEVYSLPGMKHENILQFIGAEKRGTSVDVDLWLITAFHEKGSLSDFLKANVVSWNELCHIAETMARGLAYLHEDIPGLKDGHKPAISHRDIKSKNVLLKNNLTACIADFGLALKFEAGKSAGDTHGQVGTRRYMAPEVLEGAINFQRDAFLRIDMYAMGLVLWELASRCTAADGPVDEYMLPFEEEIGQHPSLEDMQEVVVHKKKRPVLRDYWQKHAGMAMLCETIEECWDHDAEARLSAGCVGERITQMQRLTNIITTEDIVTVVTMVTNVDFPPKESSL
Phosphatidylinositol 4,5-bisphosphate 3-kinase catalytic subunit delta isoform (Homo sapiens), sequence (O00329 whole entry, canonical isoform): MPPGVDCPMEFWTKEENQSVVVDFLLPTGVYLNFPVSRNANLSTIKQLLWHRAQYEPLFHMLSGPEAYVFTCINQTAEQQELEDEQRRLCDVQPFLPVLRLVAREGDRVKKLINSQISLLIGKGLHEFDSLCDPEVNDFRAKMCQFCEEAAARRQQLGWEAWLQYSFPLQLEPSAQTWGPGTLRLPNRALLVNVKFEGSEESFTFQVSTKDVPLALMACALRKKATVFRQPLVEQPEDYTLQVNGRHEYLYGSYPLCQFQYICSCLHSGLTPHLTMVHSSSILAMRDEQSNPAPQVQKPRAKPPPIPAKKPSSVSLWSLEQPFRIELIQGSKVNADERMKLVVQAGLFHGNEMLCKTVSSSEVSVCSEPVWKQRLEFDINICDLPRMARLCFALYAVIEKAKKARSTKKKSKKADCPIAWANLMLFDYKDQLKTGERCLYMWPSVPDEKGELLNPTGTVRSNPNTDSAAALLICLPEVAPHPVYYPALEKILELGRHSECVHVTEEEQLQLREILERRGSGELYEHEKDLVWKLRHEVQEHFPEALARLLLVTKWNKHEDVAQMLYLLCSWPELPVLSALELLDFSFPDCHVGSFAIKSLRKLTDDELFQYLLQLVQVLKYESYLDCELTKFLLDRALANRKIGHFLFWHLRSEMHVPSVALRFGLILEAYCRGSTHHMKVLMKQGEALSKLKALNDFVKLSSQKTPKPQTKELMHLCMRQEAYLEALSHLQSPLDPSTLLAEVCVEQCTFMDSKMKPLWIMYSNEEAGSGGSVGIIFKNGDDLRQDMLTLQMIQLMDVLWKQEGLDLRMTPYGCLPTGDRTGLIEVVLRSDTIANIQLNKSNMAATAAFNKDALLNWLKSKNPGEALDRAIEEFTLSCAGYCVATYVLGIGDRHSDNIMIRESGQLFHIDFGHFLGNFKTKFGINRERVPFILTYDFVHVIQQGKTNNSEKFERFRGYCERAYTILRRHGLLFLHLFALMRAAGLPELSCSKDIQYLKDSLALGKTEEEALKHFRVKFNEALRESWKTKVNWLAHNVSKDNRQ
Protein kinase C eta type (Homo sapiens), sequence (P24723 whole entry): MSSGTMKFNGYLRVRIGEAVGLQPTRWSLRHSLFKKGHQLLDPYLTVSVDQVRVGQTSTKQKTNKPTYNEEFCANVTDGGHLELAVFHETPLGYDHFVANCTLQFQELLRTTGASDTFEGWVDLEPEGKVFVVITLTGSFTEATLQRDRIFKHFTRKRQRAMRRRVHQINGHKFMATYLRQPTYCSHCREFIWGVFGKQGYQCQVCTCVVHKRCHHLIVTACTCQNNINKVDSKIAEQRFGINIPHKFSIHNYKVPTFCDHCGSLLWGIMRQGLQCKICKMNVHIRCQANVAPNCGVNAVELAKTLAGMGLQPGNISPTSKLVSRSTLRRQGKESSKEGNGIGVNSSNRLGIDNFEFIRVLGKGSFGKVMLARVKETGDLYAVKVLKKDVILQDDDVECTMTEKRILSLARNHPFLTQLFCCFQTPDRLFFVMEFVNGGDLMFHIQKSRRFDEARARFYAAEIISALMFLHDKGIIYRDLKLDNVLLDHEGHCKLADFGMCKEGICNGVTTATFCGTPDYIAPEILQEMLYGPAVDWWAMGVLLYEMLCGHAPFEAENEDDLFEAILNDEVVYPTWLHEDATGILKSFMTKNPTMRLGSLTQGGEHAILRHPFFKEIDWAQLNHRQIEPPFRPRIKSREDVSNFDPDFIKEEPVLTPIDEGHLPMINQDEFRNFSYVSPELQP
NT-3 growth factor receptor (Homo sapiens), sequence (Q16288 32-839 limits assumed): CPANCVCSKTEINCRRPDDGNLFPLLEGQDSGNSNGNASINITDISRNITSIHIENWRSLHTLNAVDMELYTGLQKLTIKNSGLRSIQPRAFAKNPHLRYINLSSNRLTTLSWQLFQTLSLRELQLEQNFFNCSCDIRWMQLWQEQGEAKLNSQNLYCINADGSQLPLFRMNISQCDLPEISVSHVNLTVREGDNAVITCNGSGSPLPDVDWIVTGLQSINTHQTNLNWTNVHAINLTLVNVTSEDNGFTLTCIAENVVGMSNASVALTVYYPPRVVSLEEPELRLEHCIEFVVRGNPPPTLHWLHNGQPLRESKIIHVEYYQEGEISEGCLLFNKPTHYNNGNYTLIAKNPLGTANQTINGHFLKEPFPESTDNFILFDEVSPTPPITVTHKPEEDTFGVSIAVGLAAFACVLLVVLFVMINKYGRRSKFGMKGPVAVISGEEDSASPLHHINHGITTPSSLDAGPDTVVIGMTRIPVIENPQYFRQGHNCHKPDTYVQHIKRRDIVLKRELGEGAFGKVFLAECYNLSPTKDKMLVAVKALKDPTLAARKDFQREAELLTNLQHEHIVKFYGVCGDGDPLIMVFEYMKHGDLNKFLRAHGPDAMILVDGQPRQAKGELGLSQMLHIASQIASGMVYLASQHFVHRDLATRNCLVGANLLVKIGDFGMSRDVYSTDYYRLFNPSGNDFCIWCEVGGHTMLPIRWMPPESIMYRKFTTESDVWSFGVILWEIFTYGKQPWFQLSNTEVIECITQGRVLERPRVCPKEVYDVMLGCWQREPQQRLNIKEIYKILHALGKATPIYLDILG
Misshapen-like kinase 1 (Homo sapiens), sequence (Q8N4C8 whole entry, looked up, canonical isoform): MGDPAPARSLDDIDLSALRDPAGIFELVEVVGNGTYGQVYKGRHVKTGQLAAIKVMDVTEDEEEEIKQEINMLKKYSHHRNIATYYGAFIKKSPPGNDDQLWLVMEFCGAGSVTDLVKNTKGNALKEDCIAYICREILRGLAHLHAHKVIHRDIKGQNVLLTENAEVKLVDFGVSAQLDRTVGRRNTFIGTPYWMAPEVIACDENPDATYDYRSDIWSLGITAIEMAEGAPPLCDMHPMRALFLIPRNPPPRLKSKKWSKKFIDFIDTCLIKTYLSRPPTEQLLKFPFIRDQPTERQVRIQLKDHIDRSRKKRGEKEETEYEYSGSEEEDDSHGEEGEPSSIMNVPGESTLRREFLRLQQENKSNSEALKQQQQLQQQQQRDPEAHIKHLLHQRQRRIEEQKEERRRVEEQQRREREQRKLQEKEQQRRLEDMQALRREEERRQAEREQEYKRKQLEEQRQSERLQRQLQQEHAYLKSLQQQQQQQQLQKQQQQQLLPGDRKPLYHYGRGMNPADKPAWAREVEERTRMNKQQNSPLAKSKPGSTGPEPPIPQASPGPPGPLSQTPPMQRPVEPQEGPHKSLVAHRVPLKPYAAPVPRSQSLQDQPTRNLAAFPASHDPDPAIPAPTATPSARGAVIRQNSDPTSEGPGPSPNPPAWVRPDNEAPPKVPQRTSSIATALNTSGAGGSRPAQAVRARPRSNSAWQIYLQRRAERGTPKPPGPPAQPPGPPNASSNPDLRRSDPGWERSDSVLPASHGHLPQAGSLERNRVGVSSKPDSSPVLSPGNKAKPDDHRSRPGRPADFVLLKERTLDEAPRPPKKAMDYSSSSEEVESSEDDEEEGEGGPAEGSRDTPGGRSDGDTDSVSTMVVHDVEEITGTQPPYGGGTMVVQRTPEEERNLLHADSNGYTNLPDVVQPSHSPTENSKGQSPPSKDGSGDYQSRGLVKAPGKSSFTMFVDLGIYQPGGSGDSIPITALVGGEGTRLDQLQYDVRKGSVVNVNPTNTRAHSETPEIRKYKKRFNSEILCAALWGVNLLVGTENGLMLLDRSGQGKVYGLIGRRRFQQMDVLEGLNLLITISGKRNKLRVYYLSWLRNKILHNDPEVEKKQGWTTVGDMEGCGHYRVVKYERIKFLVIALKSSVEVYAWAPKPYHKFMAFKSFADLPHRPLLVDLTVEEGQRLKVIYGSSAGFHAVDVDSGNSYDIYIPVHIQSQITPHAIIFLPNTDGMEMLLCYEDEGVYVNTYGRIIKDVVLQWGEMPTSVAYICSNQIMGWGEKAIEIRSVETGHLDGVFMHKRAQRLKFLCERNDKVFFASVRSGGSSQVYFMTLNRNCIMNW

With `Nc1ccccc1Nc1ccc2c(c1)CCc1ccccc1C2=O`, the Activity in [1] came to 93%; in [2], 97%; in assay [3], 86%; in assay [4] it was 81%; in [5], 98%; in assay [6] it was 90%. In addition, the Activity in assay [7] was 85%; in assay [8] it was 85%; in [9], 62%; in assay [10], 85%; in assay [11] it was 94%; in [12], 90%. Further, the Activity came out at 93% in assay [13], 96% in [14] and 97% in [15].
With `O=C1c2ccc(Nc3ccc(F)cc3F)cc2CCc2ccc(OC[C@H](O)CO)cc21` [Skepinone-L], the Activity in assay [1] was 100%; in assay [2] it was 100%; in assay [3], 100%; in assay [4], 100%; in assay [5], 96%; in [6], 90%. For the same compound, the Activity turned out to be 81% in [7]; 82% in assay [8]; 70% in assay [9]; 98% in assay [10]; 100% in [11]; 79% in assay [12]. Moreover, the Activity amounted to 100% in [13], 95% in assay [14] and 98% in assay [15].
